pIC50: −log10 of the molar value. Like-named read-outs stand apart in the source and are kept apart here.

For assay [1], the system named is EGFR-overexpressing highly activated human epithelioid cancer cell line A431 cells. As to the kind of experiment: Cytostatic activity against EGFR-expressing cell line (A431), CellTiter-Glo. In kind it is cell-based. As to conditions: 3-day culture, read-out: A431 cell growth inhibitory activity IC50 value. The source says:
(§1) HER2-overexpressing human stomach cancer cell line NCI-N87 cells were suspended in RPMI1640 medium (manufactured by Life Technologies Corp.) containing 10% fetal bovine serum. Meanwhile, EGFR-overexpressing highly activated human epithelioid cancer cell line A431 cells were suspended in DMEM, high glucose medium (manufactured by Life Technologies Corp.) containing 10% fetal bovine serum. Subsequently, each cell suspension was inoculated to each well of a 384-well flat-bottom microplate and cultured at 37° C. for 1 day in an incubator containing 5% carbon dioxide. The synthesis example compound was dissolved in DMSO, and the test compound was diluted into a concentration of 500 times the final concentration using DMSO. The solution of the test compound in DMSO was diluted with the medium used in the suspension of each cell line, and this solution was added at a final concentration of DMSO of 0.2% to each well of the cell culture plate, followed by further culture at 37° C. for 3 days in an incubator containing 5% carbon dioxide.
(§2) Rate of growth inhibition (%)=(C−T)/(C)×100 T: Luminescence intensity of a well supplemented with the test compound C: Luminescence intensity of a well not supplemented with the test compound
(Cellular ATP, detected with luciferase, serves as a proxy for viable cell number.)

Assay [2] has as its system HER2-overexpressing human breast cancer cell line SK-BR-3 cells. Put plainly: Cytostatic activity against HER2-expressing cell line (SK-BR-3), CellTiter-Glo. Format: cell-based. As to conditions: 3-day culture, read-out: SK-BR-3 cell growth inhibitory activity IC50 value. How it is done: as §2
as §1, with “breast” for “stomach”, “SK-BR-3” for “NCI-N87”, “McCoy's 5a” for “RPMI1640”, “The” for “Meanwhile, EGFR-overexpressing highly activated human epithelioid cancer cell line A431 cells were suspended in DMEM, high glucose medium (manufactured by Life Technologies Corp.) containing 10% fetal bovine serum. Subsequently, each”, “into” for “into a concentration of”, “times as high concentration as” for “times”

Assay [3] has as its target purified recombinant human HER2 protein (Homo sapiens (Human), UniProt P04626). Put plainly: Measurement of inhibitory effect on HER2-phosphorylating activity (in vitro). In kind it is biochemical. As to conditions: ATP 6 μM, 25° C., 40 minutes. The source says: The purified recombinant human HER2 protein used in the test was purchased from Carna Biosciences, Inc.
For the inhibitory activity measurement of each compound, the synthesis example compound was first serially diluted with dimethyl sulfoxide (DMSO).

Assay [4] concerns HER2-overexpressing human stomach cancer cell line NCI-N87 cells. As to the kind of experiment: Cytostatic activity against HER2-expressing cell line (NCI-N87), CellTiter-Glo. Particulars: 3-day culture, read-out: NCI-N87 cell growth inhibitory activity IC50 value. Format: cell-based.
Text: as §1

purified recombinant human HER2 protein, sequence (P04626 23-1255): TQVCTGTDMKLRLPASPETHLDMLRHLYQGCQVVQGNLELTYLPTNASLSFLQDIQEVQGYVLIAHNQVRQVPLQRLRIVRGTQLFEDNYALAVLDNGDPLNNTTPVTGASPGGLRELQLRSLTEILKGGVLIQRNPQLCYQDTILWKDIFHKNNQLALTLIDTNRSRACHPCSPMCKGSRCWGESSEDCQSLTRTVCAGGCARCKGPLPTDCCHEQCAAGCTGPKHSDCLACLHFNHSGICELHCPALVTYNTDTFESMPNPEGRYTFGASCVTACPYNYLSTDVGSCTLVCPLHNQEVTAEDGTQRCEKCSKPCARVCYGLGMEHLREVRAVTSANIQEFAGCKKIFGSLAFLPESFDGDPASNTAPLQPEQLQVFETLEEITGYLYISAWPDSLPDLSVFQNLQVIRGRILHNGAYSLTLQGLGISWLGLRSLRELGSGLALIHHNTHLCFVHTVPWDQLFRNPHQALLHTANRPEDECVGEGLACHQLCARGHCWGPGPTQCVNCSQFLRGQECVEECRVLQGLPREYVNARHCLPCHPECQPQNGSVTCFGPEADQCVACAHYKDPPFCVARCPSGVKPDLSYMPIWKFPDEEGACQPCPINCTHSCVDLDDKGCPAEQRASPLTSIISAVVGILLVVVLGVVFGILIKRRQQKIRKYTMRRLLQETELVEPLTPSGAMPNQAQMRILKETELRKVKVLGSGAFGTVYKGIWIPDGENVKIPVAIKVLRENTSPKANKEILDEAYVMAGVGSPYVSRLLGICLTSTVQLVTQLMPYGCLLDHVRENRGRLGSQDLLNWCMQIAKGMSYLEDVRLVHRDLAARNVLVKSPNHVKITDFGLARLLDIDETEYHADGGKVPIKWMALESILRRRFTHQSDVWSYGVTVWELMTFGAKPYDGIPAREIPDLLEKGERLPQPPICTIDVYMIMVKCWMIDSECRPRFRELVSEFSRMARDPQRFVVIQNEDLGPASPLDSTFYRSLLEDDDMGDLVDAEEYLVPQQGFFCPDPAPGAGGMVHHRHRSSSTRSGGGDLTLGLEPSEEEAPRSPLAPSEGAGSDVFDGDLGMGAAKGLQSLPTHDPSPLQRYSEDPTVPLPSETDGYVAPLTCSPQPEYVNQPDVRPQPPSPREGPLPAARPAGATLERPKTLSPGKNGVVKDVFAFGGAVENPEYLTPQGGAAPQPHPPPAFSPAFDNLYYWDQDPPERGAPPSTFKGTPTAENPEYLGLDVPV

On to `C=CC(=O)N1CCC[C@@H](n2nc(C(=O)Nc3ccc(CC(=O)N(C)C)cc3OCF)c3c(N)ncnc32)C1` [compound 16], for which the negative-log IC50 (pIC50) in assay [1] was 5.46; in assay [2] it was 7.40; in assay [3], 8.00; in assay [4] it was 7.57.
On to `C=CC(=O)N1CCC[C@@H](n2nc(C(=O)Nc3ccc(CC(=O)N(C)C)c(F)c3OC)c3c(N)ncnc32)C1` [compound 14], for which the negative logarithm of the IC50 (pIC50) in assay [1] was 6.31; in assay [2], 8.00; in assay [3], 8.34; in assay [4] it was 8.40.
In the case of `C=CC(=O)N1CCC[C@@H](n2nc(C(=O)Nc3ccc(CC(=O)N(C)C)c(C)c3C)c3c(N)ncnc32)C1` [compound 13, (R)-1-(1-acryloylpiperidin-3-yl)-4-amino-N-(4-(2-(dimethylamino)-2-oxoethyl)-2,3-dimethylphenyl)-1H-pyrazolo[3,4-d]pyrimidine-3-carboxamide], the negative logarithm of the IC50 (pIC50) in assay [1] (Homo sapiens, A-431, 72 h) is 5.92; in assay [2] (Homo sapiens, SK-BR-3, 72 h), 8.05; in assay [4] (Homo sapiens, NCI-N87, 72 h) it was 8.30.
Take `C=CC(=O)N1CCC[C@@H](n2nc(C(=O)Nc3ccc(OC(=O)N(C)C)cc3OC)c3c(N)ncnc32)C1` [compound 36]: the pIC50 in assay [2] was 7.92.
For the compound `C=CC(=O)N1CCC[C@@H](n2nc(C(=O)Nc3ccc(CC(=O)N(C)C)c4ccccc34)c3c(N)ncnc32)C1` [compound 5], the figures for the pIC50 in assay [1], in assay [2] and in assay [4] were 5.91, 7.96 and 8.22, respectively.
In the case of `C=CC(=O)N1CCC[C@@H](n2nc(C(=O)Nc3cc(F)c(CC(=O)N(C)C)cc3C)c3c(N)ncnc32)C1` [compound 10], the negative-log IC50 (pIC50) was 5.85 in assay [1], 7.68 in assay [2], 7.89 in assay [3] and 8.22 in assay [4].
The corresponding values for `C=CC(=O)N1CCC[C@@H](n2nc(C(=O)Nc3ccc(CC(=O)N(C)C)cc3OC(F)F)c3c(N)ncnc32)C1` [compound 15] are 5.64, 7.52, 8.07 and 7.70.
Consider `C=CC(=O)N1CCC[C@@H](n2nc(C(=O)Nc3ccc(CC(=O)N(C)C)cc3Br)c3c(N)ncnc32)C1` [compound 17], for which the pIC50 was 6.04 in assay [1], 7.89 in assay [2], 8.23 in assay [3] and 8.30 in assay [4].
For `C=CC(=O)N1CCC[C@@H](n2nc(C(=O)Nc3ccc(OC(=O)N(C)C)c(C)c3C)c3c(N)ncnc32)C1` [compound 32], the values for the pIC50 in assay [1], in assay [2] and in assay [4] were 5.72, 7.85 and 8.15, respectively.
For the compound `C=CC(=O)N1CCC[C@@H](n2nc(C(=O)Nc3ccc(CC(=O)N(C)C)c(Cl)c3OC)c3c(N)ncnc32)C1` [compound 11], the pIC50 in assay [1] was 6.02; in assay [2], 7.92; in assay [3], 8.12; in assay [4] it was 8.40.
The corresponding values for `C=CC(=O)N1CCC[C@@H](n2nc(C(=O)Nc3ccc(CC(=O)N(C)C)cc3C)c3c(N)ncnc32)C1` [compound 4] are 5.58, 7.80, 7.92 and 7.92.
On to `C=CC(=O)N1CCC[C@@H](n2nc(C(=O)Nc3ccc(CC(=O)N(C)C)cc3OC)c3c(N)ncnc32)C1` [compound 7], for which the pIC50 in assay [1] is 5.55; in assay [2] it was 7.51; in assay [3], 8.15; in assay [4], 7.92.
For `C=CC(=O)N1CCC[C@@H](n2nc(C(=O)Nc3ccc(OC(=O)N(C)C)cc3Cl)c3c(N)ncnc32)C1` [compound 27], the pIC50 in assay [1] is 5.82; in assay [2], 8.05; in assay [4] it was 8.30.
Take `C=CC(=O)N1CCC[C@@H](n2nc(C(=O)Nc3ccc(OC(=O)N(C)C)cc3C)c3c(N)ncnc32)C1` [compound 26]: the pIC50 in assay [1] was 6.01; in assay [2], 8.10; in assay [3], 8.15; in assay [4], 8.30.
Regarding `C=CC(=O)N1CC(F)C[C@@H](n2nc(C(=O)Nc3ccc(CC(=O)N(C)C)cc3Cl)c3c(N)ncnc32)C1` (stereo partly drawn) [compound 76, 1-((3R)-1-acryloyl-5-fluoropiperidin-3-yl)-4-amino-N-(2-chloro-4-(2-(dimethylamino)-2-oxoethyl)phenyl)-1H-pyrazolo[3,4-d]pyrimidine-3-carboxamide], the pIC50 is 5.68 in assay [1] (Homo sapiens, A-431, 72 h) and 8.10 in assay [2] (Homo sapiens, SK-BR-3, 72 h).
For `C=CC(=O)N1CCC[C@@H](n2nc(C(=O)Nc3cc(Br)c(CC(=O)N(C)C)cc3C)c3c(N)ncnc32)C1` [compound 1], the pIC50 in assay [1] is 5.63; in assay [2], 7.70; in assay [3], 8.00; in assay [4], 7.72.
As to `C=CC(=O)N1CCC[C@@H](n2nc(C(=O)Nc3cc(Cl)c(CC(=O)N(C)C)cc3C)c3c(N)ncnc32)C1` [compound 19], the negative logarithm of the IC50 (pIC50) was 5.90 in assay [1], 7.62 in assay [2], 8.00 in assay [3] and 7.92 in assay [4].
As for `C=CC(=O)N1CCC[C@@H](n2nc(C(=O)Nc3cc(C)c(CC(=O)N(C)C)cc3Cl)c3c(N)ncnc32)C1` [compound 2], the negative-log IC50 (pIC50) in assay [1] is 5.57; in assay [2], 7.52; in assay [3], 8.08; in assay [4], 7.35.
In the case of `C=CC(=O)N1CCC[C@@H](n2nc(C(=O)Nc3cc(C)c(OC(=O)N(C)C)cc3C)c3c(N)ncnc32)C1` [compound 38], the pIC50 in assay [1] was 5.98; in assay [2], 7.92; in assay [4], 8.10.
Take `C=CC(=O)N1CC(F)C[C@@H](n2nc(C(=O)Nc3ccc(CC(=O)N(C)C)c(C)c3C)c3c(N)ncnc32)C1` (stereo partly drawn) [compound 77, 1-((3R)-1-acryloyl-5-fluoropiperidin-3-yl)-4-amino-N-(4-(2-(dimethylamino)-2-oxoethyl)-2,3-dimethylphenyl)-1H-pyrazolo[3,4-d]pyrimidine-3-carboxamide]: the negative-log IC50 (pIC50) in assay [1] (Homo sapiens, A-431, 72 h) is 5.61; in assay [2] (Homo sapiens, SK-BR-3, 72 h), 7.92.
With `C=CC(=O)N1CCC[C@@H](n2nc(C(=O)Nc3ccc(CC(=O)N(C)C)c4c3OCO4)c3c(N)ncnc32)C1` [compound 53], the values for the negative logarithm of the IC50 (pIC50) in assay [2] and in assay [3] were 7.74 and 7.85, respectively.
On to `C=CC(=O)N1CCC[C@@H](n2nc(C(=O)Nc3ccc(OC(=O)N(C)C)c(C)c3)c3c(N)ncnc32)C1` [compound 30], for which the pIC50 in assay [1] was 5.63; in assay [2], 7.41; in assay [4], 7.64.
Turning to `C=CC(=O)N1CCC[C@@H](n2nc(C(=O)Nc3ccc(CC(=O)N(C)C)c(C)c3Cl)c3c(N)ncnc32)C1` [compound 3], the pIC50 in assay [1] is 5.47; in assay [2], 8.05; in assay [3], 8.15; in assay [4], 7.57.
The corresponding values for `C=CC(=O)N1CCC[C@@H](n2nc(C(=O)Nc3ccc(OC(=O)N(C)C)c(Cl)c3)c3c(N)ncnc32)C1` [compound 29] are 5.65, 7.36, 8.19 and 7.34.
Regarding `C=CC(=O)N1CCC[C@@H](n2nc(C(=O)Nc3ccc(CC(=O)N(C)C)cc3Cl)c3c(N)ncnc32)C1` [compound 6], the negative-log IC50 (pIC50) in assay [1] was 5.89; in assay [2], 7.85; in assay [3] it was 8.40; in assay [4], 8.15.

One may read the pIC50 as −log10 of the IC50, conventionally taken in molar units.

These data come from patent US11696917B2, “Agent enhancing antitumor effect using pyrazolo[3,4-d]pyrimidine compound” (TAIHO PHARMACEUTICAL CO., LTD., priority 2017, dated 2023).
